Legend:
Format in all cases: in vivo
[1] = tested on: Sweet Potato Whitefly (Bemisia tabaci, BEMITA); experiment: Bioassay 2: Sweet Potato Whitefly, spray on cotton seedlings at crawler emergence, nymphs counted 7-9 days after treatment
Method in brief: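 Cotton seedlings pruned to one true leaf were colonized by adult B. tabaci for 24 h egg-laying, then sprayed once >25% crawler emergence was underway; solutions 0.001% to 0.00000001% (w/v) in acetone/water with 0.025% Tween 20. Held ~25° C; live 2-3 instar nymphs counted 7-9 days later, Abbott-corrected % control.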

[2] = tested on: Diamondback Moth (Plutella xylostella, PLUTMA); experiment: Bioassay 6: Diamondback Moth, artificial lepidopteran diet, live larvae after 5 days; conditions: DBM; F1 alone 0.4 % w/v
Experimental: (§1) where X=No. of live nymphs on solvent check and Y=No. of live nymphs on treated bean segments. In Table B5 the “Expected % Control” was calculated using the method described in Colby S. R., Weeds, 1967, 15, 20-22. Bioassay 6: Beet Armyworm (Spodoptera exigua, LAPHEG) (BAW), and Diamondback Moth (Plutella xylostella, PLUTMA) (DBM).
Stock solutions were prepared with Formula One as well as for each of the active ingredients individually. Test solutions were prepared from the stock solutions. Test solutions were prepared containing Formula One, the individual active ingredients, and mixtures of Formula One with each of the active ingredients. The test solution for Formula One was prepared by adding 500 μL of the stock solution to a 25 mL glass vial, then adding 500 μL of a 9:1 mixture of acetone: water. The individual active ingredients were prepared by adding 500 μL of stock solution to a 25 mL glass vial, then adding 500 μL of a 9:1 mixture of acetone: water. The test solutions containing mixtures of Formula One and the individual active ingredients were prepared by adding 500 μL of the active ingredient stock solution to a 25 mL glass vial, followed by 500 μL of the Formula One stock solution, creating a test solution containing 4000 ppm Formula One and 0.4% (w/v) of the active ingredient. Each test solution was serially diluted to create desired doses of test solutions (0.4% (w/v), 0.04% (w/v), 0.004% (w/v), 0.0004% (w/v), 0.00004% (w/v), and 0.000004% (w/v)). In test solutions containing mixtures of Formula One and the active ingredients, the active ingredients were diluted as described above, but the Concentration of Formula One was held constant (0.4% (w/v)). The highest dose test solution (0.4% (w/v)) was discarded, leaving 5 test solution concentrations used in the test.
The test solutions were tested against BAW and DBM using the following procedure: An artificial lepidopteran diet (Multispecies Lepidopteran Diet, Southland Products) was distributed in 128-cell bioassay trays (Frontier Agricultural Sciences™). 50 μL of test solution was pipetted into a cell in the bioassay tray. (The test solution doses of 0.04% (w/v), 0.004% (w/v), 0.0004% (w/v), 0.00004% (w/v), and 0.000004% (w/v) translated to concentrations of 5, 0.5, 0.05, 0.005, and 0.0005 ug/cm^2 on the diet, respectively.) A reference treatment (solvent check) was treated with the diluent only. […] After 5 days, the number of live larvae were recorded from each cell and percent control was measured using Abbott's correction formula (W. S. Abbott, J. Econ. Entomol. 18 (1925), pp. 265-267) as follows:
(§2) where X=No. of live larvae on solvent check and Y=No. of live larvae on treated diet. In Table B6 the “Expected % Control” was calculated using the method described in Colby S. R., Weeds, 1967, 15, 20-22. […]

[3] = tested on: Beet Armyworm (Spodoptera exigua, LAPHEG); experiment: Bioassay 6: Beet Armyworm, artificial lepidopteran diet, live larvae after 5 days; conditions: BAW
Experimental: as §1
Stock solutions were prepared with Formula One as well as for each of the active ingredients individually. Test solutions were prepared from the stock solutions. Test solutions were prepared containing Formula One, the individual active ingredients, and mixtures of Formula One with each of the active ingredients. […]
The test solutions were tested against BAW and DBM using the following procedure: An artificial lepidopteran diet (Multispecies Lepidopteran Diet, Southland Products) was distributed in 128-cell bioassay trays (Frontier Agricultural Sciences™). […] After 5 days, the number of live larvae were recorded from each cell and percent control was measured using Abbott's correction formula (W. S. Abbott, J. Econ. Entomol. 18 (1925), pp. 265-267) as follows:
as §2

[4] = tested on: Diamondback Moth (Plutella xylostella, PLUTMA); experiment: Bioassay 9: Diamondback Moth, leaves of track-sprayed cabbage plants, mortality and feeding damage scored; conditions: F1 alone 40 (10^-5) Wt %

Compound	Average % Control AI ([1]; AI alone 1 (10-5) % w/v) [%]	Average % Control AI ([1]; AI alone 0.1 (10-5) % w/v) [%]	further results
Cc1c(COC(=O)[C@@H]2[C@H](/C=C(\Cl)C(F)(F)F)C2(C)C)cccc1-c1ccccc1 (racemic) [Bifenthrin]	40		
CC1(C)[C@H](C(=O)O[C@H](C#N)c2cccc(Oc3ccccc3)c2)[C@@H]1/C=C(\Cl)C(F)(F)F (racemic) [Lambda Cyhalothrin]	27		
C/C(=N\C#N)N(C)Cc1ccc(Cl)nc1 [Acetamiprid]	29		
CCN(C(=O)CCS(C)(=O)=O)c1sc(-c2cccnc2)nc1Cl [Formula F1, N-(4-chloro-2-(pyridin-3-yl)thiazol-5-yl)-N-ethyl-3-(methylsulfonyl)propanamide]			Average % Control F1 [2]: 0%; Average % Control F1 ([3]; F1 alone 0.4 % w/v): 0%; Average % Control F1 ([4]; Acute mortality): 6.82%; Average % Control F1 ([4]; Feeding damage control): 8.53%
Abamectin		16	Average % Control AI ([3]; AI alone, Ratio F1:AI 100:1): 50%
Emamectin Benzoate	5	0	
